In brackets after ≈: the same amount, converted by molar mass.
What was measured:
[1] = tested on: L. donovani intracellular amastigotes infecting THP-1 macrophages; assay: GSK intramacrophage L. donovani assay (LD AMMAC, inMac; Assay Conditions C); type: cell-based; settings: Leishmania donovani, THP-1
Procedure, shortened: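 EC50 values come from counting amastigotes per infected THP-1 macrophage (AMMAC). Parallel read-outs give percentage of infected cells per well (INFCELL) and a macrophage-number toxicity EC50 (MAC).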

[2] = tested on: L. donovani intracellular amastigotes in B10R cells; assay: UCSD L. donovani infection assay (Assay Conditions D); type: cell-based; settings: Leishmania donovani; for EC50: average of two biological replicates, read-out: L. donovani EC50 (UCSD assay)
Procedure, shortened: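 Compounds, either single-point at 10 μM or 10-point 2-fold series (3 technical, 2 biological replicates), were incubated 72 h at 37° C. with B10R host cells co-seeded with day-7 stationary L. donovani promastigotes (20:1). DAPI-stained nuclei imaging yielded intracellular parasite EC50 and host-cell CC50.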

[3] = Kinetic aqueous solubility by CAD; type: physicochemical; settings: aqueous medium, kinetic from dmso stock, high-throughput CAD
Description: Solubility of compounds using ChemiLuminescent Nitrogen Detection (CLND) was measured as described. Solubility of compounds using Charged Aerosol Detection (CAD) was measured as described. Solubility of solid compounds in Fasted Simulated Intestinal Fluid (FaSSIF) was measured as described.

[4] = target: human serum albumin (Homo sapiens, UniProt P02768); assay: Human serum albumin (HSA) binding, chromatographic; type: in vitro ADME
Description: The percentage of compound bound to human serum albumin was measured using a chromatographic method as described. Briefly, each compound was assayed on an immobilized HSA column and gradient retention times measured, with chromatographic peak detection by UV. Each retention time was then converted to a % HSA bound value using a calibration set of compounds with a known % HSA binding.

[5] = Property forecast index (PFI = ChromLogD7.4 + aromatic rings); type: physicochemical
[6] = UCSD infection assay, host cell cytotoxicity (CC50); type: cell-based; settings: host macrophages infected with L. donovani; cytotoxicity against host macrophages
[7] = tested on: L. donovani intracellular amastigotes infecting THP-1 cells; assay: High content intracellular amastigote assay in THP-1 cells (Assay Conditions B; CDIPD screen); type: cell-based, Leishmania donovani; settings: 10 μM; THP-1 cells; footnote b
Description: (§1) Assay Conditions B: THP-1 cells (human acute monocytic leukemia cell line—ATCC TIB202) were grown in RPMI supplemented with 10% Fetal Bovine Serum (FBS) and 50 μM 2-mercaptoethanol at 37° C. in 5% CO2. THP-1 were seeded in microwell plates at 5×10^5 cells/mL density and treated with 0.1 μM phorbol myristate acetate (PMA, Sigma) at 37° C. for 48 h for differentiation into adherent, non-dividing macrophages. After activation by PMA, cells were washed and incubated with complete RPMI medium containing stationary phase Leishmania promastigotes (L. major: strain LV39; L. donovani, strain 1S/Cl2D) at a 1:15 parasite-cell ratio. Compounds were added and incubated at 37° C. for 72 h. Cells were then washed with phosphate-buffered saline (PBS), fixed for 30 minutes with 4% formaldehyde, rinsed again with PBS, stained for 2 h with 4′,6′-diamidino-2-phenylindole (DAPI 300 nM) and finally washed with PBS. In a collaborative effort to identify new antileishmanial chemotypes with minimal host cell cytotoxicity, compounds from the Boston University Center for Molecular Discovery (BUCMD) screening collection were assessed in a phenotypic, high content primary screen at the University of California's Center for Discovery and Innovation in Parasitic Diseases (CDIPD) for the ability to inhibit growth of L. donovani intracellular amastigotes infecting THP-1 cells. […] Dose-response testing in L. donovani (both intracellular amastigotes and promastigotes) confirmed concentration-dependent growth inhibition of both morphologies of the parasite at low micromolar EC50 values for both compounds (Table 1).

[8] = tested on: THP-1 cells; assay: Host THP-1 cell cytotoxicity in the CDIPD high content screen; type: cell-based, human; settings: Homo sapiens, THP-1; 10 μM; footnote b; read-out: THP-1 host cell % growth inhibition at 10 μM
Description: as §1

Sequence of human serum albumin (P02768 25-609): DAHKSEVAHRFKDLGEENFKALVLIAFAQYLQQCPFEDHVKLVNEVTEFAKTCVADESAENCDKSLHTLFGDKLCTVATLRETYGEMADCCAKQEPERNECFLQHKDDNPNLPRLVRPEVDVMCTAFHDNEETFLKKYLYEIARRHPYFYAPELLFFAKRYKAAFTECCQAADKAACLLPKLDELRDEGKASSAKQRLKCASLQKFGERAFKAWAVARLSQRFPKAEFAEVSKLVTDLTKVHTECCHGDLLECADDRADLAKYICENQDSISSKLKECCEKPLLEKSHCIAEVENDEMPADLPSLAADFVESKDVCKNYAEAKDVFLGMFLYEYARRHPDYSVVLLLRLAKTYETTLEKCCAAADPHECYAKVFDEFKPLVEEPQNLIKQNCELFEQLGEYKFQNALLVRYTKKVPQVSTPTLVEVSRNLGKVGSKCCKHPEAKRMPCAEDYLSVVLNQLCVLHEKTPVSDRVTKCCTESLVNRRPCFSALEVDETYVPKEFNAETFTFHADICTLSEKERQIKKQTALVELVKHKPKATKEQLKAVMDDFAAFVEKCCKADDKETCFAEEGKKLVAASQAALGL

Structure (SMILES) | IC50 [1] | IC50 [2] | EC50 [2] | solubility [3] | HSA Binding [4] | PFI [5] | CC50 at 72 h [6] | L. donovani amastigotes % GI at 10 μM (THP-1 cells) [7] | inhibition at 10 µM [8]
COc1ccc(N2C(=O)c3[nH]nc(CC(C)C)c3C2c2ccccc2OC)cc1F (centres unmarked) [Compound 72, 5-(3-fluoro-4-methoxyphenyl)-3-isobutyl-4-(2-methoxyphenyl)-4,5-dihydropyrrolo[3,4-c]pyrazol-6(1H)-one] | 1.3 µM | 0.4 µM | 0.38 µM | 43 µM (≈ 17.6 µg/mL) | 95.9% | 8.5 | 0.26 µM | – | –
COc1ccccc1C1c2c(CC(C)C)n[nH]c2C(=O)N1c1ccc(N(C)C)cc1 (centres unmarked) [Compound 80, 5-(4-(dimethylamino)phenyl)-3-isobutyl-4-(2-methoxyphenyl)-4,5-dihydropyrrolo[3,4-c]pyrazol-6(1H)-one] | 0.2 µM | 0.1 µM | 0.07 µM | 66 µM (≈ 26.7 µg/mL) | 95.7% | 8.6 | 3.45 µM | – | –
COc1cc(F)ccc1C1c2c(CC(C)C)n[nH]c2C(=O)N1c1ccc(N(C)C)cc1 (centres unmarked) [Compound 82, 5-(4-(dimethylamino)phenyl)-4-(4-fluoro-2-methoxyphenyl)-3-isobutyl-4,5-dihydropyrrolo[3,4-c]pyrazol-6(1H)-one] | 4 µM | – | 0.04 µM | 45 µM (≈ 19 µg/mL) | 97.1% | 8.8 | 8.5 µM | – | –
COc1cc(F)ccc1C1c2c(CC(C)C)n[nH]c2C(=O)N1c1ccc(Br)cc1 (centres unmarked) [Compound 77, 5-(4-bromophenyl)-4-(4-fluoro-2-methoxyphenyl)-3-isobutyl-4,5-dihydropyrrolo[3,4-c]pyrazol-6(1H)-one] | 0.1 µM | 0.1 µM | 0.12 µM | < 1 µM | 98.5% | 9.7 | 4.04 µM | – | –
CC(C)Cc1n[nH]c2c1C(c1ccccc1Cl)N(c1ccc(N(C)C)cc1)C2=O (centres unmarked) [Compound 78, 4-(2-chlorophenyl)-5-(4-(dimethylamino)phenyl)-3-isobutyl-4,5-dihydropyrrolo[3,4-c]pyrazol-6(1H)-one] | 0.8 µM | 0.3 µM | 0.26 µM | 21 µM (≈ 8.59 µg/mL) | 96.7% | 9.4 | 7.32 µM | – | –
Cc1cc(F)ccc1C1c2c(CC(C)C)n[nH]c2C(=O)N1c1ccc(N(C)C)cc1 (centres unmarked) [Compound 81, 5-(4-(dimethylamino)phenyl)-4-(4-fluoro-2-methylphenyl)-3-isobutyl-4,5-dihydropyrrolo[3,4-c]pyrazol-6(1H)-one] | 0.1 µM | 0.1 µM | 0.11 µM | 27 µM (≈ 11 µg/mL) | 96.5% | 9.1 | 7.51 µM | – | –
CC(C)Cc1n[nH]c2c1C(c1ccccc1)N(c1ccccc1)C2=O (centres unmarked) [CMLD007421] | – | – | – | – | – | – | – | 0.0% | < 10%
COc1ccc(N2C(=O)c3[nH]nc(-c4ccccc4)c3C2c2ccccc2)cc1 (centres unmarked) [CMLD007203] | – | – | – | – | – | – | – | 0.0% | < 10%
Cc1cc(F)ccc1C1c2c(CC(C)C)n[nH]c2C(=O)N1c1ccc(Br)cc1 (centres unmarked) [Compound 76, 5-(4-bromophenyl)-4-(4-fluoro-2-methylphenyl)-3-isobutyl-4,5-dihydropyrrolo[3,4-c]pyrazol-6(1H)-one] | 0.6 µM | 0.1 µM | 0.12 µM | < 1 µM | 97.7% | 9.8 | 3.04 µM | – | –
CC(C)Cc1n[nH]c2c1C(c1ccccc1Br)N(c1ccc(Br)cc1)C2=O (centres unmarked) [Compound 74, 4-(2-bromophenyl)-5-(4-bromophenyl)-3-isobutyl-4,5-dihydropyrrolo[3,4-c]pyrazol-6(1H)-one] | 10 µM | 0.4 µM | 0.39 µM | < 1 µM | 98.0% | 10.4 | 4.98 µM | – | –
COc1ccc(N2C(=O)c3[nH]nc(C(C)C)c3C2c2ccc(F)cc2)cc1 (centres unmarked) [CMLD007188] | – | – | – | – | – | – | – | 0.0% | < 10%
COc1ccc(N2C(=O)c3[nH]nc(CC(C)C)c3C2c2ccccc2OC)cn1 (centres unmarked) [Compound 85, 3-isobutyl-4-(2-methoxyphenyl)-5-(6-methoxypyridin-3-yl)-4,5-dihydropyrrolo[3,4-c]pyrazol-6(1H)-one] | 7.9 µM | 1.1 µM | 1.11 µM | 176 µM (≈ 69.1 µg/mL) | 93.9% | 8.0 | > 20 µM | – | –
CC(C)Cc1n[nH]c2c1C(c1ccccc1Cl)N(c1ccc3c(c1)OCO3)C2=O (centres unmarked) [Compound 67, 5-(benzo[d][1,3]dioxol-5-yl)-4-(2-chlorophenyl)-3-isobutyl-4,5-dihydropyrrolo[3,4-c]pyrazol-6(1H)-one] | 0.5 µM | 0.2 µM | 0.16 µM | 35 µM (≈ 14.3 µg/mL) | 98.0% | 8.7 | 12.2 µM | – | –
COc1ccc(N2C(=O)c3[nH]nc(-c4ccccc4)c3C2c2ccc(F)cc2)cc1 (centres unmarked) [CMLD007235] | – | – | – | – | – | – | – | 0.0% | 30%
Cc1ccc(C2c3c(CC(C)C)n[nH]c3C(=O)N2c2ccccc2)cc1 (centres unmarked) [CMLD007424] | – | – | – | – | – | – | – | 81.0% | 35%
COc1ccccc1C1c2c(CC(C)C)n[nH]c2C(=O)N1c1ccc(Br)cc1 (centres unmarked) [Compound 75, 5-(4-bromophenyl)-3-isobutyl-4-(2-methoxyphenyl)-4,5-dihydropyrrolo[3,4-c]pyrazol-6(1H)-one] | 0.5 µM | 0.2 µM | 0.24 µM | < 1 µM | 97.5% | 9.6 | 1.14 µM | – | –
Cc1cc(F)ccc1C1c2c(CC(C)C)n[nH]c2C(=O)N1c1ccc2c(c1)OCO2 (centres unmarked) [Compound 70, 5-(benzo[d][1,3]dioxol-5-yl)-4-(4-fluoro-2-methylphenyl)-3-isobutyl-4,5-dihydropyrrolo[3,4-c]pyrazol-6(1H)-one] | > 100 µM | 0.1 µM | 0.1 µM | 46 µM (≈ 18.7 µg/mL) | 97.6% | 8.6 | 12.1 µM | – | –
COc1ccc(N2C(=O)c3[nH]nc(C(C)C)c3C2c2ccccc2)cc1 (centres unmarked) [CMLD007286] | – | – | – | – | – | – | – | 0.0% | < 10%
Cc1cc(F)ccc1C1c2c(CC(C)C)n[nH]c2C(=O)N1c1ccc2ncnn2c1 (centres unmarked) [Compound 89, 5-([1,2,4]triazolo[1,5-a]pyridin-6-yl)-4-(4-fluoro-2-methylphenyl)-3-isobutyl-4,5-dihydropyrrolo[3,4-c]pyrazol-6(1H)-one] | 1.6 µM | 0.9 µM | 0.87 µM | < 1 µM | 93.2% | 8.1 | > 20 µM | – | –
COc1ccc(N2C(=O)c3[nH]nc(C(C)C)c3C2c2ccc(C)cc2)cc1 (centres unmarked) [CMLD007169] | – | – | – | – | – | – | – | 0.0% | < 10%
COc1ccc(N2C(=O)c3[nH]nc(CC(C)C)c3C2c2ccc(F)cc2C)cc1F (centres unmarked) [Compound 73, 4-(4-fluoro-2-methylphenyl)-5-(3-fluoro-4-methoxyphenyl)-3-isobutyl-4,5-dihydropyrrolo[3,4-c]pyrazol-6(1H)-one] | 3.2 µM | 0.2 µM | 0.16 µM | 35 µM (≈ 14.4 µg/mL) | 96.3% | 8.8 | 10.9 µM | – | –
COc1ccc(N2C(=O)c3[nH]nc(C)c3C2c2ccc(C)cc2)cc1 (centres unmarked) [CMLD007247] | – | – | – | – | – | – | – | 0.0% | < 10%

Reference: patent US20230381142A1, “ANTILEISHMANIAL COMPOUNDS, COMPOSITIONS AND USE THEREOF” (TRUSTEES OF BOSTON UNIVERSITY, priority 2022, published 2023)
